The record followed here is patent publication US20260109727A1, “RNA CONSTRUCTS AND USES THEREOF” (BioNTech SE, priority 2022, published 2026).

One data set has as its system human PBMCs. The data set can be described thus: XTT cytotoxicity test of PBMCs transfected with LPX-formulated EPO mRNA. The note with it: 24 h, up to 1 μg/well mRNA. The format is cell-based. The procedure:
Human buffy coats from healthy individuals were obtained from the Faculty of Medicine of Johannes Gutenberg University, Mainz and used to isolate peripheral blood mononuclear cells (PBMCs) on a Ficoll-Paque™ PLUS (Cytiva, Marlborough, MA, USA) density gradient. In preparation for mRNA transfection, cryopreserved PBMCs were thawed and seeded into 96-well plates at a density of 5×10^5 cells per well in 190 μL RPMI medium supplemented with 1% non-essential amino acids (NEAA), 1% sodium pyruvate and 10% Fetal Bovine Serum (Merck, Germany). Cells were maintained at 37° C. with 5% CO2 until transfection with 0.5, 1.5, 5.0 and 15 μg/ml lipoplex-formulated EPO mRNA (LPX-RNA), as described in Kranz, L. M., et al. (2016) Nature, 534, 396-401. The complexed RNA (10 μl per well) was added in triplicates and supernatants were collected at 24 h after transfection to perform single cell cytotoxicity assay and to measure the cytokine/chemokine profile. […] The levels of IL-6 (Interleukin 6), TNF-α (Tumor necrosis factor alpha), IL-1 (Interleukin 1 beta), IFN-γ (Interferon gamma), MCP-1 (Monocyte Chemoattractant Protein-1), […] (Macrophage inflammatory protein 1 beta) and IL-10 (Interleukin 10) were quantified 24 h after the mRNA transfection. […]

In data set [1] the test system is human primary hepatocytes. Nature of the data set: EPO secretion in human primary hepatocytes transfected with TransIT-EPO mRNA (ELISA). The format is cell-based. The procedure:
To measure the translational efficiency of EPO mRNA capped with compound I′-1, compound I′-6, CC114, and CC413 in vitro, human primary hepatocytes were seeded into 96-well plates at a density of 2.5×10^4 cells per well and were transfected with mRNA samples (0.1 μg) complexed with TransIT reagent (Mirus Bio, Madison, WI, USA) in a final volume of 200 μL in InVitroGRO CP Medium (Sigma-Aldrich) supplemented with Thorpedo Antibiotic Mix (Sigma-Aldrich). To quantify EPO levels, the supernatant was collected at 1, 2, 3, 4, 5 and 6 day after transfection and EPO levels were analyzed by mouse Erythropoietin DuoSet ELISA kit (R&D Systems, Minneapolis, MN, USA) according to the manufacturer's instructions.
In each in vivo experiment in order to measure the translational efficiency and to determine the functionality of EPO mRNA capped with I′-1, I′-2, I′-3, I′-5, I′-6, I′-9, I′-12, I′-13, I′-16, CC114, and CC413 in vivo, female BALB/c mice from Jackson Laboratory (Bar Harbor, ME, USA) at the age of eight to ten weeks were used for in accordance with federal policies on animal research (Ethics approval number: G19-12-074). In each case, mice (n=3/group) were injected intravenously (i.v.) with 3 μg TransIT-complexed (Mirus Bio) EPO mRNAs in a final volume of 200 μL Dulbecco's modified Eagle medium (DMEM). Mice used as controls were injected with TransIT-reagent diluted in DMEM but without RNA. To measure hematocrits and EPO levels in the individual mice that were injected with EPO mRNA capped with I′-6, I′-1, CC114, and CC413 and complexed with TransIT-reagent, 18 μL of blood was collected at the indicated times (FIG. 8B) and centrifuged in Drummond microcaps glass capillary tubes (20 μl volume, Merck, Germany) as described (19). After determination of the hematocrit, capillary tubes were snapped open, and the plasma was collected to measure EPO levels and analyzed for mouse Erythropoietin DuoSet ELISA kit (R&D Systems) according to the manufacturer's instructions. […] EPO RNA containing m1Ψ modifications translated 2-3-fold, 5-fold, and 10-fold more than U-containing mRNAs at 6-24, 48 and 72 hours after injections, respectively. (FIG. 8A). […] To address translation of I′-6-capped mRNA in human primary hepatocytes, EPO level was measured from supernatants transfected using 0.1 μg/well TransIT-formulated I′-6- or CC114-capped uRNA (FIG. 13).
To test if various uridine (U) or pseudouridine (Ψ) derivatives of cap analogues can improve translation in human primary hepatocytes, we first measured EPO secretion after application of EPO-encoding Ψ-mRNA capped with compounds described herein analog bearing pseudouridine (I′-3) or CC413 (no modification). […] In addition, all tested modification bearing caps led to increase in EPO secretion at 24 h and 48 h when compared to the unmodified I′-1 (FIG. 16).
(In an ELISA, binding on a coated surface is turned into a signal by an enzyme label.)

Consider `COC1C(OP(=O)(O)OC[C@H]2O[C@@H](c3cn(C)c(=O)[nH]c3=O)C(O)C2O)[C@@H](COP(=O)(O)OP(=O)([O-])OP(=O)(O)OC[C@H]2O[C@@H](n3c[n+](C)c4c(O)nc(N)nc43)C(O)C2OC)O[C@H]1n1cnc2c(N)ncnc21` (some centres unmarked) [I′-6, m^7G(^3′-OMe)pppA(2′-OMe)pm^1Ψ], for which the “toxic effect on cell viability (XTT)” value with human PBMCs is “no toxic effect”. For the same molecule, the “translation (EPO secretion) compared to CC413” value in data set [1] (0.1 μg/well TransIT-EPO mRNA, 24 hrs) is “higher translation”. Further, the “EPO secretion, I′-6- vs CC114-capped uRNA” value in data set [1] (0.1 μg/well TransIT-formulated uRNA, 24 h, 48 h and 144 h) is given as “Increased secretion of EPO”. In addition, the “level of secreted EPO compared to other caps (I′-9, I′-12, I′-16)” value in data set [1] (24 h) was “increased level”. For the same molecule, in data set [1] (m1Ψ-mRNA context), the “translation compared to CC413” value is “lower translation at later time points but in close to comparable translation”.
